Laboratory results reported in article PMC7286788 (ACS infectious diseases, 2019).
Where two headings read alike, the source gives them in different places. Marks after values point to notes of the source that are not given here.

How the values were obtained:
MsmegMurG [1] = biological target: T1, MsmegMurG (Mycolicibacterium smegmatis, UniProt A0R016); assay: biochemical; design: species or system Mycobacterium smegmatis; details: read-out: (MsmegMurG) inhibition (%)
MsmegMurG [2] = biological target: T1, MsmegMurG; assay: biochemical; design: species or system Mycobacterium smegmatis
HyMurG [3] = biological target: T2, HyMurG (Hydrogenivirga sp. 128-5-R1-1, UniProt A8US35); assay: UV-Vis-based MurG assay; type: biochemical; details: for Inhibition of MurG function / lipid II formation: 50–100 μM; for inhibition at 10 µM / inhibition at 50 µM / inhibition at 100 µM: read-out: HthermMurG inhibition (%)
MsmegMraY = MsmegMraY (Mycolicibacterium smegmatis, UniProt A0R019); assay: biochemical; type: biochemical, Mycobacterium smegmatis
in vitro = details: African green monkey
M. tuberculosis (H37Rv) = assay: MIC determination, M. tuberculosis; type: cell-based, Mycobacterium tuberculosis; details: 7H9 containing OADC; 14 days
M. smegmatis (ATCC607) = assay: MIC determination, resazurin, M. smegmatis; type: cell-based, Mycobacterium smegmatis; details: 7H9 with 0.5% tween 80, 3 days at 37 °C
HyMurG [4] = biological target: T2, HyMurG; assay: HPLC-based MurG assay, dose-response, HyMurG; type: biochemical; details: read-out: IC50 HyMurG; HPLC-based method; average of two-three experiments
[5] = substrate: CC(=O)N[C@H]1[C@@H](OP(=O)(O)OP(=O)(O)OC[C@H]2O[C@@H](n3ccc(=O)[nH]c3=O)[C@H](O)[C@@H]2O)O[C@H](CO)[C@@H](O)[C@@H]1O; assay: Kinetic studies of MurG of M. smegmatis; type: biochemical, Mycobacterium smegmatis; details: other: apparent Km

Chain of MsmegMraY (A0R019 whole entry): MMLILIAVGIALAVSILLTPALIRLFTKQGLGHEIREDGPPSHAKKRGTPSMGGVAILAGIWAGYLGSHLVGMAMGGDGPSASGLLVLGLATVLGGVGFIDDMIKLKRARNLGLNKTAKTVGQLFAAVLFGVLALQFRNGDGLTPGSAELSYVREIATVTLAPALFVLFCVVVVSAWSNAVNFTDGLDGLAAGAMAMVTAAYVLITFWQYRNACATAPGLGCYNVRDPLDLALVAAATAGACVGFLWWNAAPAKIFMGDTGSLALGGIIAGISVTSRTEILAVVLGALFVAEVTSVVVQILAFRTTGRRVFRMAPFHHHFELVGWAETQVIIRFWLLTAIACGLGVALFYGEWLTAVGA
T2 sequence (A8US35 1-350): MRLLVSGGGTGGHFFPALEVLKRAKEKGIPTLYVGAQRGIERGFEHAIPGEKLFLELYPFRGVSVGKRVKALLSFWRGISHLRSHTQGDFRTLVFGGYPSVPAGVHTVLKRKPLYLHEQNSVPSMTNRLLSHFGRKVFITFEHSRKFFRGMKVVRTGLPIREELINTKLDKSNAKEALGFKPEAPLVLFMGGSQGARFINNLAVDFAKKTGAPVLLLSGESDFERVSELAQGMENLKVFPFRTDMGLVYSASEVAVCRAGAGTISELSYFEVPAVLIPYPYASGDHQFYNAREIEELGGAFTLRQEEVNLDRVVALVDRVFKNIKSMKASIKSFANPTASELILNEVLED

CO[C@H]1[C@@H](O)[C@H](n2ccc(=O)[nH]c2=O)O[C@@H]1[C@@H](O[C@H]1OC(C(=O)N[C@H]2CCCCNC2=O)=C[C@H](O)[C@@H]1O)C(N)=O [Capuramycin, capuramycin]
inhibition at 10 µM (MsmegMurG [1]): 0% | inhibition at 50 µM (MsmegMurG [1]): 0% | inhibition at 100 µM (MsmegMurG [1]): 0% | IC50 (MsmegMurG [2]): > 100 µM | Inhibition of MurG function / lipid II formation (HyMurG [3]): did not inhibit | inhibition at 10 µM (HyMurG [3]): 0% | inhibition at 50 µM (HyMurG [3]): 0% | inhibition at 100 µM (HyMurG [3]): 0% | IC50 (MsmegMraY): 0.13 µM

CC[C@@H](CO)NCCN[C@@H](CC)CO [Ethambutol]
IC50 (in vitro): > 100 µg/mL

NNC(=O)c1ccncc1 [INH]
M. tuberculosis (H37Rv) MIC (M. tuberculosis (H37Rv)): 0.16 µg/mL | Vero cell cytotoxicity IC50 (Vero cell): >100 µg/mL | M. smegmatis (ATCC607) MIC (M. smegmatis (ATCC607)): 0.78 µg/mL

C=C(C/C=C(\C)CCC=C(C)C)CCC(C)(C)/C=C/CC/C(C)=C\CO[C@H](COP(=O)(O)O[C@H]1O[C@H](C(N)=O)[C@@](C)(O)[C@H](OC(N)=O)[C@H]1O[C@@H]1O[C@H](CO[C@@H]2O[C@H](CO)[C@@H](O)[C@H](O)[C@H]2O)[C@@H](O[C@@H]2O[C@H](C)[C@@H](O[C@@H]3O[C@H](C(=O)NC4=C(O)CCC4=O)[C@H](O)[C@H](O)[C@H]3O)[C@H](O)[C@H]2NC(C)=O)[C@H](O)[C@H]1NC(C)=O)C(=O)O [Moenomycin A, moenomycin A]
inhibition at 10 µM (MsmegMurG [1]): 0% | inhibition at 50 µM (MsmegMurG [1]): 0% | inhibition at 100 µM (MsmegMurG [1]): 15% | IC50 (MsmegMurG [2]): > 100 µM | Inhibition of MurG function / lipid II formation (HyMurG [3]): did not inhibit | inhibition at 10 µM (HyMurG [3]): 0% | inhibition at 50 µM (HyMurG [3]): 0% | inhibition at 100 µM (HyMurG [3]): 12% | IC50 (MsmegMraY): > 100 µM

CO[C@H]1[C@@H](OC)[C@H](n2ccc(=O)[nH]c2=O)O[C@@H]1[C@@H](O[C@H]1OC(C(=O)N[C@H]2CCCCNC2=O)=C[C@H](O)[C@@H]1O)C(N)=O [O-Methylcapuramycin, O-methylcapuramycin]
IC50 (HyMurG [4]): > 100 µM | IC50 (MsmegMurG [2]; read-out: IC50 MsmegMurG, HPLC-based method, average of two-three experiments): > 100 µM | Inhibition of MurG function / lipid II formation (HyMurG [3]): did not inhibit | IC50 (MsmegMraY; read-out: IC50 MsmegMraY, HPLC-based method, average of two-three experiments): > 100 µM

CO[C@H]1/C=C/O[C@@]2(C)Oc3c(C)c(O)c4c(O)c(c(/C=N/N5CCN(C)CC5)c(O)c4c3C2=O)NC(=O)/C(C)=C\C=C\[C@H](C)[C@H](O)[C@@H](C)[C@@H](O)[C@@H](C)[C@H](OC(C)=O)[C@@H]1C [Rifampicin]
IC50 (in vitro): > 100 µg/mL

O=C(NC(=O)c1ccccc1Cl)Nc1ccc(OC(F)(F)F)cc1 [Triflumuron, triflumuron]
IC50 (HyMurG [4]): > 100 µM | inhibition at 10 µM (MsmegMurG [1]): 0% | inhibition at 50 µM (MsmegMurG [1]): 0% | inhibition at 100 µM (MsmegMurG [1]): 0% | IC50 (MsmegMurG [2]): > 100 µM | Inhibition of MurG function / lipid II formation (HyMurG [3]): did not inhibit | inhibition at 10 µM (HyMurG [3]): 0% | inhibition at 50 µM (HyMurG [3]): 0% | inhibition at 100 µM (HyMurG [3]): 0% | IC50 (MsmegMraY): > 100 µM

B1: MurG of M. smegmatis (Mycolicibacterium smegmatis MC2 155) (protein)
chain: MNKGSRDNNHSDRGISVVLAGGGTAGHVEPAMAVADALRALDPDVRITALGTQRGLETRLVPQRGYDLELITPVPLPRKPSKDLLRLPMRVRTAIRQTRDVLTGVNADVVVGFGGYVALPAYLAARGGLTGRRKVPVVVHEANARAGLANRVGARSARRVLSAVPDSGLRNVEVVGVPVRESITSLDRAALRAQARAEFGFAEDARVLLVFGGSQGAQSINRAVSAAAKDLAAAGISVLHAHGPKNTLDLPPADPQAPPYVAVPYLDRMDLAYAAADLAICRSGAMTVAEVTAVGLPAIYVPLPIGNGEQRLNALPVVDAGGGLLVDDADLSGDTVARTVIPLLTDDSKLAAMTAAASLSGHPDAARRVAQVALEIARAARKKAS
Km ([5]; 2e-C55 37.5 μM): 36 ± 10^b μM | Km ([5]; 2e-C55 75.0 μM): 37 ± 3.0 µM
